19 molecules from patent US10034886B2, “GLP-1 receptor modulators” (Celgene International II SÀRL, priority 2014, dated 2018) can be followed below.

Structures are written as SMILES. pEC50: −log10 of the molar value.

T1 sequence (P43220 24-463): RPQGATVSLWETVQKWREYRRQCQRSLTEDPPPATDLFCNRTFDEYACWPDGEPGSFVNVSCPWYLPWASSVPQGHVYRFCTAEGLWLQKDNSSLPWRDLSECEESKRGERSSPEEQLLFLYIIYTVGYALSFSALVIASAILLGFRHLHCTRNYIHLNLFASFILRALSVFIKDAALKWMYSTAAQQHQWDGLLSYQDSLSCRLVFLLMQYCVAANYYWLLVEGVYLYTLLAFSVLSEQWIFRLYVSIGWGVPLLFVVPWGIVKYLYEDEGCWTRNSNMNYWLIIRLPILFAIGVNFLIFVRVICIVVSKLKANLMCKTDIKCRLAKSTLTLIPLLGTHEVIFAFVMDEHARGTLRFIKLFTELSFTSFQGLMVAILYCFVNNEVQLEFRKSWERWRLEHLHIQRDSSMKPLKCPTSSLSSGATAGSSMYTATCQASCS
T1 sequence (P01275 100-127 partner limits assumed): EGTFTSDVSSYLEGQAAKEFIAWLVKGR

The experiment has as its target T1, GLP-1R (Homo sapiens, UniProt P43220).
T1 construct: host or cells: GLP-1R CRE-bla CHO-K1 cells
Nature of the experiment: EC20 GLP-1(9-36) PAM cAMP assay: dose response of compound in the presence of fixed concentration of GLP-1(9-36). In kind it is cell-based. As to conditions: dose response of compound in presence of fixed concentration of GLP-1(9-36), GLP-1R CRE-bla CHO-K1 cells, read-out: EC20 GLP-1(9-36) PAM EC50. The method, boiled down:
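Positive allosteric modulation read as cAMP accumulation: compound titrations (12 points) combined with an EC20 level of GLP-1(9-36) on CHO-K1 GLP-1R CRE-bla cells, IBMX present, 30 min, 37 °C, pH 7.4 buffer. Luminescence converted to cAMP via standards; non-linear fit gave EC50 and Emax.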
For the molecule `CCCCCCCOc1ccc(-c2cnc(-c3ccc(C[C@H](NC(=O)c4ccc(C(C)(C)C)cc4)C(=O)NC(Cc4c[nH]c5ncccc45)C(=O)O)cc3)nc2)cc1` (stereo partly shown) [Compound 584], the pEC50 is 5.60 to 6.10. To `CCCCCCCOc1ccc(-c2cnc(-c3ccc(C[C@H](NC(=O)c4ccc(C(C)(C)C)cc4)C(=O)N4C[C@H](O)C[C@@H]4C(=O)O)cc3)nc2)cc1` [Compound 585] belongs 5.60 to 6.10. For `CCCCCCCOc1ccc(-c2cnc(-c3ccc(C[C@H](NC(=O)c4ccc(C(C)(C)C)cc4)C(=O)N4C[C@@H](O)C[C@@H]4C(=O)O)cc3)nc2)cc1` [Compound 586] the value was more than 6.10. Take `CCCCCCCOc1ccc(-c2cnc(-c3ccc(C[C@H](NC(=O)c4ccc(C(C)(C)C)cc4)C(=O)N4C[C@@H](O)C[C@H]4C(=O)O)cc3)nc2)cc1` [Compound 587]: the pEC50 is more than 6.10. For `CCCCCCCOc1ccc(-c2cnc(-c3ccc(C[C@H](NC(=O)c4ccc(C(C)(C)C)cc4)C(=O)N4CC[C@@H](C(=O)O)C4)cc3)nc2)cc1` [Compound 588] the value was 5.60 to 6.10.

`CCCCCCCOc1ccc(-c2cnc(-c3ccc(C[C@H](NC(=O)c4ccc(C(C)(C)C)cc4)C(=O)N[C@H](CC(=O)O)C(=O)NC)cc3)nc2)cc1` [Compound 589]: the pEC50 is 5.60 to 6.10.

Take `CCCCCCCOc1ccc(-c2cnc(-c3ccc(C[C@H](NC(=O)c4ccc(C(C)(C)C)cc4)C(=O)N4CC(C(=O)O)C4)cc3)nc2)cc1` [Compound 590, (S)-1-(2-(4-(tert-butyl)benzamido)-3-(4-(5-(4-(heptyloxy)phenyl)pyrimidin-2-yl)phenyl)propanoyl)azetidine-3-carboxylic acid]: the pEC50 was more than 6.10.

For the molecule `CCCCCCCOc1ccc(-c2cnc(-c3ccc(C[C@H](NC(=O)c4ccc(C(C)(C)C)cc4)C(=O)N[C@H](CC(=O)NC)C(=O)O)cc3)nc2)cc1` [Compound 591], the pEC50 was more than 6.10. To `CCCCCCCOc1ccc(-c2cnc(-c3ccc(C[C@H](NC(=O)c4ccc(C(C)(C)C)s4)C(=O)NC(Cc4nccs4)C(=O)O)cc3)nc2)cc1` (stereo partly shown) [Compound 592] belongs 5.60 to 6.10; to `CCCCCCCOc1ccc(-c2cnc(-c3ccc(C[C@H](NC(=O)c4ccc(C(C)(C)C)s4)C(=O)N[C@@H](Cc4cn(C)cn4)C(=O)O)cc3)nc2)cc1` [Compound 593], more than 6.10; to `CCCCCCCOc1ccc(-c2cnc(-c3ccc(C[C@H](NC(=O)c4ccc(C(C)(C)C)s4)C(=O)N[C@@H](Cn4cccn4)C(=O)O)cc3)nc2)cc1` [Compound 594], more than 6.10.

With `CCCCCCCOc1ccc(-c2cnc(-c3ccc(C[C@H](NC(=O)c4ccc(C(C)(C)C)s4)C(=O)NC(COC)C(=O)O)cc3)nc2)cc1` (stereo partly shown) [Compound 595], the pEC50 is more than 6.10.

On to `CCCCCCCOc1ccc(-c2cnc(-c3ccc(C[C@H](NC(=O)c4ccc(C(C)(C)C)s4)C(=O)NC(C(=O)O)c4ccccc4C(F)(F)F)cc3)nc2)cc1` (stereo partly shown) [Compound 596], for which the pEC50 was 5.60 to 6.10. To `CCCCCCCOc1ccc(-c2cnc(-c3ccc(C[C@H](NC(=O)c4ccc(C(C)(C)C)s4)C(=O)NC(CCS(C)(=O)=O)C(=O)O)cc3)nc2)cc1` (stereo partly shown) [Compound 597] belongs more than 6.10; to `CCCCCCCOc1ccc(-c2cnc(-c3ccc(C[C@H](NC(=O)c4ccc(C(C)(C)C)s4)C(=O)NC(C(=O)O)c4c(C)n[nH]c4C)cc3)nc2)cc1` (stereo partly shown) [Compound 598], more than 6.10. To `CCCCCCCOc1ccc(-c2cnc(-c3ccc(C[C@H](NC(=O)c4ccc(C(C)(C)C)s4)C(=O)N4CCC4C(=O)O)cc3)nc2)cc1` (stereo partly shown) [Compound 599] belongs more than 6.10; to `CCCCCCCOc1ccc(-c2cnc(-c3ccc(C[C@H](NC(=O)c4ccc(C(C)(C)C)s4)C(=O)NC(C(=O)O)c4cccs4)cc3)nc2)cc1` (stereo partly shown) [Compound 600], more than 6.10; to `CCCCCCCOc1ccc(-c2cnc(-c3ccc(C[C@H](NC(=O)c4ccc(C(C)(C)C)s4)C(=O)N[C@@H](Cc4ccc(O)c(O)c4)C(=O)O)cc3)nc2)cc1` [Compound 601], 5.60 to 6.10. For the molecule `CCCCCCCOc1ccc(-c2cnc(-c3ccc(C[C@H](NC(=O)c4ccc(C(C)(C)C)s4)C(=O)NC4CC(C(=O)O)C4)cc3)nc2)cc1` (stereo partly shown) [Compound 602], the pEC50 is more than 6.10.
